Results: US8349878B2 (Laboratorios del Dr. Esteve, S.A., priority 2006, dated 2013)
Structures can show the parent of a compound that is named as a salt. Where two headings read alike, the source gives them in different places.

Biological target: T1, σ1-receptor (Cavia porcellus, UniProt Q60492)
T1 construct: guinea pig brains were homogenized; from tissue; host or cells: guinea pig brain membranes
Test: Sigma-1 receptor binding assay, [3H](+)-pentazocine displacement in guinea pig brain membranes
Conditions: for inhibition at 0.01 µM: read-out: Sigma-1 Inhibition percent (0.01 μM); for inhibition at 0.1 µM: read-out: Sigma-1 Inhibition percent (0.1 μM)
Protocol: The following protocol was followed:
In brief, guinea pig brains were homogenized in 10 vols. (w/v) of Tris-HCl 50 mM 0.32 M sucrose, pH 7.4, with a Kinematica Polytron PT 3000 at 15000 r.p.m. for 30 s. The homogenate was centrifuged at 1000 g for 10 min at 4° C. and the supernatants collected and centrifuged again at 48000 g for 15 min at 4° C. The pellet was resuspended in 10 volumes of Tris-HCl buffer (50 mM, pH 7.4), incubated at 37° C. for 30 min, and centrifuged at 48000 g for 20 min at 4° C. Following this, the pellet was resuspended in fresh Tris-HCl buffer (50 mM, pH 7.4) and stored on ice until use.
Each assay tube contained 10 μL of [^3H](+)-pentazocine (final concentration of 0.5 nM), 900 μL of the tissue suspension to a final assay volume of 1 mL and a final tissue concentration of approximately 30 mg tissue net weight/mL. Non-specific binding was defined by addition of a final concentration of 1 μM haloperidol. […] Filters were then washed with four times with 4 mL of cold Tris-HCl buffer (50 mM, pH 7.4). Following addition of scintillation cocktail, the samples were allowed to equilibrate overnight.

[1] = [3H](+)-pentazocine 0.5 nM, guinea pig brain membranes, read-out: Sigma-1 Ki (nm) Displ. 10^−7 M (10^−8 M)
[2] = compound at 0.01 μM, [3H](+)-pentazocine 0.5 nM, guinea pig brain membranes
[3] = compound at 0.1 μM, [3H](+)-pentazocine 0.5 nM, guinea pig brain membranes

T1 sequence (Q60492 whole entry): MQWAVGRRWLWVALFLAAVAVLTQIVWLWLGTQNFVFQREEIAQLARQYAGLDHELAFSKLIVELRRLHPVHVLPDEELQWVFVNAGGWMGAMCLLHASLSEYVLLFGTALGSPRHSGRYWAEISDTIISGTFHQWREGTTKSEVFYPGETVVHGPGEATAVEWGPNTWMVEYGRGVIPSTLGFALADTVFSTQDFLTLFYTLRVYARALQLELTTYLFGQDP

Row | SMILES | Ki [1] [nM] | inhibition at 0.01 µM [2] [%] | inhibition at 0.1 µM [3] [%] | Ki [nM] | inhibition at 0.01 µM [%] | inhibition at 0.1 µM [%]
1 | Cc1nc(OCCN2CCCCC2)nn1-c1ccc(Cl)c(Cl)c1 [compound 22] | 3.1 ± 1.6 | 54.3 | 94.8 |  |  | 
2 | Cc1nc([S+]([O-])CCN(C(C)C)C(C)C)nn1-c1ccc(Cl)c(Cl)c1 (stereo not shown) [compound 17] |  |  |  | 4 | 62.3 | 93.9
3 | Cc1nc([S+]([O-])CCN2CCCC2)nn1-c1ccc(Cl)c(Cl)c1 (stereo not shown) [compound 15, 1-[2-(1-(3,4-dichlorophenyl)-5-methyl-1H-1,2,4-triazol-3-yl-sulfinyl)ethyl]pyrrolidine] | 7 | 47.2 | 88.9 |  |  | 
4 | CCN(CC)CCOc1nc(C)n(-c2ccccc2)n1 [compound 26, 2-(5-methyl-1-phenyl-1H-1,2,4-triazol-3-yloxy)-N,N-diethyl ethanamine] |  | 7.3 | 15.2 |  |  | 
5 | Cc1nc(OCCN2CCCC2)nn1-c1ccc(Cl)c(Cl)c1 [compound 24, 1-[2-(1-(3,4-Dichlorophenyl)-5-methyl-1H-1,2,4-triazol-3-yloxy)ethyl]pyrrolidine] |  | 39.5 | 91.8 |  |  | 
6 | Cc1nc(SCCCCN2CCC(c3ccccc3)CC2)nn1-c1ccc(Cl)c(Cl)c1 [compound 10, 1-[4-(1-(3,4-dichlorophenyl)-5-methyl-1H-1,2,4-triazol-3-yl-thio)butyl]-4-phenylpiperidine oxalate] |  | 27.3 | 88.1 |  |  | 
7 | Cc1nc(OCCN2CCCC2)nn1-c1ccccc1 [compound 27, 1-[2-(5-methyl-1-phenyl-1H-1,2,4-triazol-3-yloxy)ethyl]pyrrolidine] |  | 8.1 | 30.4 |  |  | 
8 | Cc1nc(SCCCN2CCOCC2)nn1-c1ccc(Cl)c(Cl)c1 [compound 7, 4-[3-(1-(3,4-Dichlorophenyl)-5-methyl-1H-1,2,4-triazol-3-ylthio)propyl]morpholine oxalate] | 8.2 | 67.8 | 85.5 |  |  | 
9 | Cc1nc([S+]([O-])CCCCN2CCC(c3ccccc3)CC2)nn1-c1ccc(Cl)c(Cl)c1 (stereo not shown) [compound 18, 1-[4-(1-(3,4-Dichlorophenyl)-5-methyl-1H-1,2,4-triazol-3-ylsulfinyl)butyl]-4-phenylpiperidine] |  | -39.5 | 37.2 |  |  | 
10 | CCN(CC)CCOc1nc(C)n(-c2ccc(Cl)c(Cl)c2)n1 [compound 23, 2-[1-(3,4-Dichlorophenyl)-5-methyl-1H-1,2,4-triazol-3-yloxy]-N,N-diethylethanamine] |  | 32.2 | 85 |  |  | 
11 | Cc1nc(OCCN2CCOCC2)nn1-c1ccccc1 [compound 28, 4-[2-(5-methyl-1-phenyl-1H-1,2,4-triazol-3-yloxy)ethyl]morpholine] |  | -20.9 | -3.4 |  |  | 
12 | Cc1nc(SCCCCCN2CCCC2)nn1-c1ccc(Cl)c(Cl)c1 [compound 14, 1-[5-(1-(3,4-dichlorophenyl)-5-methyl-1H-1,2,4-triazol-3-ylthio)pentyl]pyrrolidine oxalate] |  | 6 | 52.5 |  |  | 
13 | Cc1nc(SCCN2CCCCCC2)nn1-c1ccc(Cl)c(Cl)c1 [compound 6, 1-[2-(1-(3,4-dichlorophenyl)-5-methyl-1H-1,2,4-triazol-3-yl-thio)ethyl]azepane oxalate] |  | 90.6 | 99.2 |  |  | 
14 | Cc1nc(SCCN2CCCCC2)nn1-c1ccc(Cl)c(Cl)c1 [compound 2, 1-[2-(3,4-dichlorophenyl)-5-methyl-1H-1.2.4-triazole-3-yl-thioethyl]piperidine oxalate] | 0.8 | 105 | 109 |  |  | 
15 | Cc1nc(S(=O)(=O)CCCCN2CCOCC2)nn1-c1ccc(Cl)c(Cl)c1 [compound 21, 4-[4-(1-(3,4-Dichlorophenyl)-5-methyl-1H-1,2,4-triazol-3-yl-sulfonyl)-butyl]morpholine] |  | 8.3 | 20.5 |  |  | 
16 | Cc1nc(SCCN(C(C)C)C(C)C)nn1-c1ccc(Cl)c(Cl)c1 [compound 4, oxalate] |  |  |  | 1.1 | 105 | 109
17 | CCN(CC)CCSc1nc(C)n(-c2ccc(Cl)c(Cl)c2)n1 [compound 5, 2-(1-(3,4-dichlorophenyl)-5-methyl-1H-1,2,4-triazole-3-yl-thio]-N,N-diethyl ethanamine oxalate] | 1.1 | 104 | 109 |  |  | 
18 | Cc1nc(SCCN2CCOCC2)nn1-c1ccc(Cl)c(Cl)c1 [compound 1, oxalate] | 1.1 | 102 | 107 |  |  | 
19 | Cc1nc(S(=O)(=O)CCN2CCCC2)nn1-c1ccc(Cl)c(Cl)c1 [compound 19] | 2.2 | 71.8 | 96.4 |  |  | 
20 | Cc1nc(SCCCCN2CCOCC2)nn1-c1ccc(Cl)c(Cl)c1 [compound 11, 4-[4-(1-(3,4-dichlorophenyl)-5-methyl-1H-1,2,4-triazol-3-yl-thio)butyl]morpholine oxalate] |  | 14.5 | 66.9 |  |  | 
21 | Cc1nc(OCCN2CCCCC2)nn1-c1ccccc1 [compound 29, 1-[2-(5-methyl-1-phenyl-1H-1,2,4-triazol-3-yloxy)ethyl]piperidine] |  | 5.8 | 46.1 |  |  | 
22 | Cc1nc(SCCN2CCCC2)nn1-c1ccc(Cl)c(Cl)c1 [compound 3, oxalate] | 1.4 | 103 | 106 |  |  | 
23 | Cc1nc(SCCCN2CCCC2)nn1-c1ccc(Cl)c(Cl)c1 [compound 8, 1-[3-(1-(3,4-dichlorophenyl)-5-methyl-1H-1,2,4-triazol-3-yl-thio)propyl]-4-pyrrolidine oxalate] | 2.1 | 57.4 | 82.5 |  |  | 
24 | Cc1nc(OCCN2CCOCC2)nn1-c1ccc(Cl)c(Cl)c1 [compound 25, 4-[2-(1-(3,4-Dichlorophenyl)-5-methyl-1H-1,2,4-triazol-3-yloxy)ethyl]morpholine oxalate] |  | 33.8 | 83.8 |  |  | 
25 | Cc1nc([S+]([O-])CCN2CCOCC2)nn1-c1ccc(Cl)c(Cl)c1 (stereo not shown) [compound 16, 4-[2-(1-(3,4-dichlorophenyl)-5-methyl-1H-1,2,4-triazol-3-yl-sulfinyl)-ethyl]-morpholine] |  | 28.6 | 42 |  |  | 
26 | Cc1nc(SCCCCCN2CCCCC2)nn1-c1ccc(Cl)c(Cl)c1 [compound 12, 1-[5-(1-(3,4-dichlorophenyl)-5-methyl-1H-1,2,4-triazol-3-ylthio)pentyl]piperidine oxalate] |  | 52.1 | 82.8 |  |  | 
27 | CCN(CC)CCS(=O)(=O)c1nc(C)n(-c2ccc(Cl)c(Cl)c2)n1 [compound 20, 2-[1-(3,4-Dichlorophenyl)-5-methyl-1H-1,2,4-triazol-3-ylsulfonyl]-N,N-diethylethanamine] | 16.7 | 51.2 | 82.1 |  |  | 
28 | Cc1nc(OCCCCN2CCOCC2)nn1-c1ccccc1 [compound 30, 4-[4-(5-methyl-1-phenyl-1H-1,2,4-triazol-3-yloxy)butyl]morpholine] |  | -15.1 | 18.3 |  |  | 
29 | Cc1nc(SCCCCCN2CCOCC2)nn1-c1ccc(Cl)c(Cl)c1 [compound 13, 4-[5-(1-(3,4-Dichlorophenyl)-5-methyl-1H-1,2,4-triazol-3-ylthio)pentyl]morpholine oxalate] |  | 4.3 | 58.2 |  |  | 
30 | Cc1nc(SCCCN2CCC(c3ccccc3)CC2)nn1-c1ccc(Cl)c(Cl)c1 [compound 9, 1-[3-(1-(3,4-dichlorophenyl)-5-methyl-1H-1,2,4-triazol-3-ylthio)propyl]-4-phenylpiperidine oxalate] | 9 | 74.2 | 89 |  |  | 
